In patent US20130116336A1, “TREATMENT OF ATAXIA TELANGIECTASIA” (priority 2010, published 2013):

Tests used:
[1] = tested on: Ataxia-Telangiectasia fibroblast cells AG04405 (AT05); assay: Ataxia-Telangiectasia cell line assay: rescue of BSO-stressed A-T fibroblasts, Calcein AM viability; type: cell-based; settings: A-T fibroblasts AT05 stressed with 1 mM BSO for 48 h, Calcein AM fluorescence, tested three times, read-out: ED50, protection of ataxia telangiectasia cells
Method: Alpha-Tocotrienol quinone, was tested for its ability to rescue Ataxia-Telangiectasia fibroblast cells obtained from the Coriell Cell Repositories (Camden, N.J.; repository number AG04405 (AT05), when the cells were stressed by addition of L-buthionine-(S,R)-sulfoximine (BSO), as described in Jauslin et al., Hum. Mol. Genet. 11(24):3055 (2002), Jauslin et al., FASEB J. 17:1972-4 (2003), and International Patent Application WO 2004/003565.
MEM (a medium enriched in amino acids and vitamins, catalog no. 1-31F24-I) and Medium 199 (M199, catalog no. 1-21F22-I) with Earle's Balanced Salts, without phenol red, were purchased from Bioconcept. Fetal Calf Serum was obtained from PAA Laboratories. Basic fibroblast growth factor and epidermal growth factor were purchased from PeproTech. Penicillin-streptomycin-glutamine mix, L-buthionine (S,R)-sulfoximine, and insulin from bovine pancreas were purchased from Sigma. Calcein AM was purchased from Molecular Probes. […]
100 μL of PBS containing 1.2 μM Calcein AM were then added to each well. […] After that time the PBS was discarded, the plate gently tapped on a paper towel and fluorescence (excitation/emission wavelengths of 485 nm and 525 nm, respectively) was read on a Gemini fluorescence reader. […]

[2] = Animal study of alpha-tocotrienol quinone administration: pharmacokinetics in rats; settings: rat, in vivo, 10 mg/kg
Method: (§1) The particular dosage appropriate for a specific patient is determined by dose titration. […] There is less than dose-proportionality since for an increase in doses of 2.4:6:10:20 there is only an increase in AUCs of 1.5:2.8:4.0:6.7. This lack of dose-proportionality may be due to decreased absorption since there is no change in t1/2 over dose range. Alpha-tocotrienol quinone tested in rats was safe when given acutely up to 2000 mg/kg.

[3] = Animal study of alpha-tocotrienol quinone administration: pharmacokinetics in fasted dogs; settings: dog, in vivo, po, 10 mg/kg
Method: as §1

in vivo = settings: rat; for NOAEL: female
Method: as §1
The starting dose can be estimated based on the United States Food and Drug Administration guidelines titled “Estimating the Maximum Safe Starting Dose in Initial Clinical Trials for Therapeutics in Adult Healthy Volunteers” (July 2005) as well as the International Conference on Harmonisation of Technical Requirements for Registration of Pharmaceuticals for Human Use (ICH) guidelines titled “Guidance on Non-clinical Safety Studies for the Conduct of Human Clinical Trials and Marketing Authorization for Pharmaceuticals” (July 2008). Per ICH guidelines, predicted exposures from the starting dose should not exceed 1/50th the NOAEL (No-Adverse-Observed-Effect-Level) in the more sensitive species on a mg/m^2 basis. Following a single oral dose of alpha-tocotrienol quinone, the NOAEL was established to be 500 mg/kg for the female rat, i.e. 3,000 mg/m2. This dosage would be equivalent to 81 mg/kg in an adult human. 1/50th of 81 mg/kg is 1.6 mg/kg, i.e. 110 mg for a 70 kg adult, or 16 mg for a 10 kg child. This dose can be administered once, twice, or three times daily.

## CC(C)=CCC/C(C)=C/CC/C(C)=C/CCC(C)(O)CCC1=C(C)C(=O)C(C)=C(C)C1=O (stereo not drawn) [Alpha-tocotrienol quinone]
[1]
  EC50: 0.028 µM
[2]
  Cmax: 0.931 µg/mL
  Tmax: 3.5 h
  bioavailability: ~90%
  half-life: 3.5 h
[3]
  Cmax: 0.442 µg/mL
  Tmax: 2.8 h
  bioavailability: ~16%
  half-life: 7.6 h
In vivo
  NOAEL: 81 mg/kg
  dose at which safe when given acutely: up to 2000 mg/kg
In vivo; po
  NOAEL: 500 mg/kg
  NOAEL on body surface basis: 3,000 mg/m2
